# According to article PMC6753210, “^18F-Labeled Cyclized α-Melanocyte-Stimulating Hormone Derivatives for Imaging Human Melanoma Xenograft with Positron Emission Tomography” (Scientific Reports, 2019):
# How the values were obtained:
# [1] = Biodistribution in NSG mice bearing human SK-MEL-1 melanoma xenografts; assay type: in vivo, mouse; conditions: male, NSG, mouse, SK-MEL-1 tumor, iv, total radioactivity, 1 h p.i., n = 4
# Description: (§1) All animal experiments were conducted in according to the guidelines established by Canadian Council on Animal Care and approved by Animal Ethics Committee of the University of British Columbia. Male C57BL/6 J and immunodeficient NSG mice were obtained from an in-house breeding colony at the BC Cancer Research Centre. For tumor implantation, mice were anesthetized by inhalation with 2% isoflurane, 1 × 10^6 B16-F10 and 5 × 10^6 SK-MEL-1 cells were inoculated subcutaneously on the right dorsal flank of C57BL/6J and NSG mice, respectively. Mice were used for imaging or biodistribution studies when the tumors reached 6–8 mm in diameter.
# (§2) μPET/μCT imaging and biodistribution experiments were performed on a μPET/μCT scanner (Inveon, Siemens) using previously published procedures. Briefly, tumor-bearing mice were injected with approximately 3.0–5.0 MBq (for imaging) or <1.5 MBq (for biodistribution) of radiolabeled peptides via tail vein under sedation (2% isoflurane inhalation). For [^18F]FDG imaging and biodistribution, mice underwent fasting overnight prior to the experiments. Imaging studies were performed in duplicate or triplicate. […] After injection, mice were allowed to recover and roam freely in their cages. At 1 or 2 h p.i., mice were anesthetized again and positioned in the scanner. A baseline CT scan was obtained for localization and attenuation correction, followed by a 10–15 min static μPET scan. For biodistribution studies, mice were euthanized by CO2 inhalation, blood was withdrawn promptly, and the tissues of interest were harvested, rinsed, and blotted dry. All tissues were weighed and the radioactivity of the collected samples was measured using a WIZARD 2480 gamma counter.
# [2] = tested on: SK-MEL-1 human melanoma xenografts; assay: as above; assay type: in vivo, mouse; conditions: 1 h p.i.
# Description: as §1, §2
# MC1R = target: T1, MC1R (Mus musculus, UniProt Q01727); assay: In vitro competition binding assay with [^125I]NDP-αMSH on B16-F10 cells; conditions: 0.1 nM [^125I]NDP-αMSH, 25 °C, 1 h, n = 3
# T1 construct: endogenous in cells; host or cells: B16-F10 mouse melanoma cells
# T1 sequence (Q01727 whole entry): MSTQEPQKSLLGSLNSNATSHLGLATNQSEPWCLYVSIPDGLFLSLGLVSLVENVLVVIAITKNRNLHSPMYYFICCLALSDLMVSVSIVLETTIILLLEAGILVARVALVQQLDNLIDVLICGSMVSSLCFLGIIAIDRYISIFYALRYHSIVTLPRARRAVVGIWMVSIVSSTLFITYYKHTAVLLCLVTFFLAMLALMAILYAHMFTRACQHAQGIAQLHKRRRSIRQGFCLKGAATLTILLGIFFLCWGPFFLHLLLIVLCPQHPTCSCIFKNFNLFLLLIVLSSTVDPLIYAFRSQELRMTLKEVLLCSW
# Description: Receptor binding affinity of CCZ01096 was assessed using previously published procedures. Briefly, approximately 500,000 B16-F10 cells/well were seeded onto 24 well poly-D-lysine plates overnight. The cells were washed with PBS and the growth media was replaced by the reaction buffer described above. Increasing concentrations of non-radioactive CCZ01096 (0.5 pM to 5 μM) along with 0.1 nM of [^125I]NDP-αMSH were also added. The reaction mixture was incubated at 25 °C with moderate agitation for 1 h. Cells were washed with ice-cold PBS, harvested, and measured for radioactivity on a WIZARD 2480 gamma counter.
# [3] = NSG mice, SK-MEL-1 xenograft, unblocked, n = 5 ([^18F]FDG n = 4)
smiles,measurement,setting,value
"CCCC[C@H](NC(=O)CN1CCC(NC(=O)CN2CCN(CC(=O)O)CCN(CC(=O)O)CCN(CC(=O)O)CC2)CC1)C(=O)N[C@H]1CC(=O)NCCCC[C@@H](C(N)=O)NC(=O)[C@H](Cc2c[nH]c3ccccc23)NC(=O)[C@H](CCCNC(=N)N)NC(=O)[C@@H](Cc2ccccc2)NC(=O)[C@H](Cc2c[nH]cn2)NC1=O [[^68Ga]Ga-CCZ01048, metal not drawn]",tissue uptake at 1 h,"[1]; 5.9 pmol, without co-injection, total injected peptide mass 5.9 ± 0.90 pmol",6.15 ± 0.22 %ID/g
same,tissue uptake at 1 h,"[1]; co-injection of 20 pmol ^natGa-CCZ01048, total peptide mass 27.5 ± 0.6 pmol",2.66 ± 0.22 %ID/g
same,tissue uptake at 1 h,"[1]; co-injection of 50 pmol ^natGa-CCZ01048, total peptide mass 57.3 ± 1.0 pmol",1.31 ± 0.13 %ID/g
same,tissue uptake at 1 h,"[1]; co-injection of 100 pmol ^natGa-CCZ01048, total peptide mass 109 ± 1.0 pmol",1.04 ± 0.17 %ID/g
same,Reduction of tumor uptake,[2]; co-injection of 20 pmol ^natGa-CCZ01048 vs none,57%
same,Reduction of tumor uptake,[2]; co-injection of 50 pmol ^natGa-CCZ01048 vs none,79%
same,Reduction of tumor uptake,[2]; co-injection of 100 pmol ^natGa-CCZ01048 vs none,83%
"OC[C@H]1OC(O)[C@H]([18F])[C@@H](O)[C@@H]1O (stereo partly drawn) [[^18F]FDG, 2-[^18F]fluorodeoxyglucose]",Adrenal glands uptake,[2]; [3],2.05±0.28 %ID/g
same,Blood uptake,[2]; [3],0.95±0.27 %ID/g
same,Bone uptake,[2]; [3],0.86 ± 0.35 %ID/g
same,Brain uptake,[2]; [3],9.54 ± 1.69 %ID/g
same,Fat uptake,[2]; [3],0.86±0.21 %ID/g
same,Heart uptake,[2]; [3],8.80 ± 4.42 %ID/g
same,Intestines uptake,[2]; [3],3.95 ± 0.16 %ID/g
same,Kidneys uptake,[2]; [3],3.01±0.28 %ID/g
same,Liver uptake,[2]; [3],1.48±0.14 %ID/g
same,Lungs uptake,[2]; [3],3.42±0.40 %ID/g
same,Muscle uptake,[2]; [3],1.75 ± 0.54 %ID/g
same,Pancreas uptake,[2]; [3],1.41±0.20 %ID/g
same,Seminal glands uptake,[2]; [3],4.63 ± 0.57 %ID/g
same,Spleen uptake,[2]; [3],3.59±0.68 %ID/g
same,Stomach uptake,[2]; [3],1.00±0.11 %ID/g
same,Testes uptake,[2]; [3],1.15±1.03 %ID/g
same,Thyroid uptake,[2]; [3],2.72±0.13 %ID/g
same,Tumor/Blood ratio,[2]; [3],7.64±2.06
same,Tumor/Bone ratio,[2]; [3],8.83±2.62
same,Tumor/Kidneys ratio,[2]; [3],2.30±0.04
same,Tumor/Muscle ratio,[2]; [3],4.22±1.30
same,SK-MEL-1 tumor uptake,"[2]; NSG mice, SK-MEL-1 xenograft, tail vein, unblocked, gamma counter, n = 5 ([^18F]FDG n = 4)",6.91 ± 0.66 %ID/g
CCCC[C@H](NC(=O)CN1CCC(NC(=O)C(CCCCNC(=O)Cn2cc(C[N+](C)(C)C[B-](F)(F)F)nn2)NC(=O)Cn2cc(C[N+](C)(C)C[B-](F)(F)F)nn2)CC1)C(=O)N[C@H]1CC(=O)NCCCC[C@@H](C(N)=O)NC(=O)[C@H](Cc2c[nH]c3ccccc23)NC(=O)[C@H](CCCNC(=N)N)NC(=O)[C@@H](Cc2ccccc2)NC(=O)[C@H](Cc2c[nH]cn2)NC1=O (stereo partly drawn) [CCZ01096],Ki,MC1R,0.51 ± 0.08 nM
